Results published in patent publication US12421282B2, “Compositions and methods for the treatment of metabolic and liver disorders” (priority 2021, dated 2025).
Where two headings read alike, the source gives them in different places. *1 amine or outer side, *2 acyl side, *3 side chain or, on linkers, in order; H or OH if unused. Where a SMILES comes first, the peptide text is derived from it. Side-chain parts run from the residue outwards. [ ]: non-standard residue; d: D form. The star is where a group is joined. Nonadecanoyl(19-PO3H2) = O=C(CCCCCCCCCCCCCCCCCCP(=O)(O)O)*; γGlu = O=C(O)[C@H](CCC(=O)[*:2])N[*:1]; AEEA = NCCOCCOCC(=O)O; Aib = CC(C)(N)C(=O)O

Experiments:
[1] = target: human recombinant GLP-1 receptor (Homo sapiens, UniProt P43220); test: TagLite binding assay, GLP-1 receptor, without and with 2% HSA
Chain of human recombinant GLP-1 receptor (P43220 24-463): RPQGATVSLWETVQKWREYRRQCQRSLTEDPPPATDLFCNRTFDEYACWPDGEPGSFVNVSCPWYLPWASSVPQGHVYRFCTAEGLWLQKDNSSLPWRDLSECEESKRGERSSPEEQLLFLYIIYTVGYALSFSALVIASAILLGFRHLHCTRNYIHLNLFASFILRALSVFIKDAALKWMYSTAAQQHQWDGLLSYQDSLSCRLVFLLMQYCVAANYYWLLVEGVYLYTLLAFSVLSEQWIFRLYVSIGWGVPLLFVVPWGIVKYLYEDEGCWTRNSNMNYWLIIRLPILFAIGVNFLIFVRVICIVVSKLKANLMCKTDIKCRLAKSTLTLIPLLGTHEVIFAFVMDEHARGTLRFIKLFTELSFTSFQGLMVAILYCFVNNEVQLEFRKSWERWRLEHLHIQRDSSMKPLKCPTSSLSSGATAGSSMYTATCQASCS
Description: (§1) Binding data for Compounds 15-25, for two human recombinant G protein coupled receptors, GLP-1 and GIP, was obtained using […]® binding assay and Epics Therapeutics cell lines. The binding assay was repeated in the presence of 2% human serum albumin (HSA). Compounds 16, 21, and 22 have an HSA ratio for the GLP-1 receptor of 7.1, 7.6, and 7.8, respectively. Compounds 15, 18, and 23 have an HSA ratio for the GIP receptor of 7.3, 4.3, and 6.4, respectively. A lower HSA ratio indicates greater binding affinity for the receptor than for albumin when compared to a compound with a greater HSA ratio.

[2] = target: T1, human recombinant GIP receptor (Homo sapiens, UniProt P48546); test: TagLite binding assay, GIP receptor, without and with 2% HSA
T1 sequence (P48546 22-466): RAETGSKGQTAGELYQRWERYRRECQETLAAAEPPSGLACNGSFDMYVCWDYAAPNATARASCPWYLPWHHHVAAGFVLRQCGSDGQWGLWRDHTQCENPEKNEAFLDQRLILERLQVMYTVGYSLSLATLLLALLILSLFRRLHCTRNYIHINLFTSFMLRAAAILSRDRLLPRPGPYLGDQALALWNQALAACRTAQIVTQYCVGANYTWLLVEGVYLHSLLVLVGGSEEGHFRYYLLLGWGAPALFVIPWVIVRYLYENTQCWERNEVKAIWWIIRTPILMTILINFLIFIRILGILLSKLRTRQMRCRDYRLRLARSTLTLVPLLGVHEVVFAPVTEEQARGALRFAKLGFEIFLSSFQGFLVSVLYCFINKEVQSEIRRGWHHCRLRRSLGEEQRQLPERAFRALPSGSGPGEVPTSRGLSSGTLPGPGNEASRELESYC
Description: as §1

[3] = set-up: species or system cynomolgus monkeys; settings: cynomolgus monkey, in vivo, sc, 0.2 mg/kg
Protocol: Subcutaneous (SC) dosing of the compounds in a vehicle of 0.1% bovine serum albumin in phosphate buffered saline solution was performed with male cynomolgus monkeys. […] Samples were obtained at 1, 4, 8, 12, 24, 48, 72, 96, 120, 168, 192, 240 and 336 hours after the single dose was administered.

[4] = 2% human serum albumin, read-out: GLP-1 receptor IC50 2% HSA
[5] = no HSA, read-out: GLP-1 receptor IC50 No HSA
[6] = 2% human serum albumin, read-out: GIP receptor IC50 2% HSA
[7] = no HSA, read-out: GIP receptor IC50 No HSA

| Structure (SMILES) | IC50 [1, 4] | IC50 [1, 5] | IC50 [2, 6] | IC50 [2, 7] | AUC(0-inf) [3] | AUC(0-t) [3] | Cmax [3] | Tmax [3] | half-life [3] | mean half life longer compared to tirzepatide [3] | mean half life as compared to tirzepatide (in words) [3] |
| --- | --- | --- | --- | --- | --- | --- | --- | --- | --- | --- | --- |
| CC[C@H](C)[C@H](NC(=O)[C@H](CC(C)C)NC(=O)[C@H](Cc1c[nH]c2ccccc12)NC(=O)[C@H](CCC(N)=O)NC(=O)[C@@H](NC(=O)[C@H](Cc1ccccc1)NC(=O)[C@H](C)NC(=O)[C@H](CCC(N)=O)NC(=O)[C@H](CCC(N)=O)NC(=O)[C@H](C)NC(=O)[C@@H](NC(=O)[C@H](CCCCNC(=O)COCCOCCNC(=O)COCCOCCNC(=O)CC[C@H](NC(=O)CCCCCCCCCCCCCCCCCCP(=O)(O)O)C(=O)O)NC(=O)[C@H](CC(=O)O)NC(=O)[C@H](CC(C)C)NC(=O)C(C)(C)NC(=O)[C@@H](NC(=O)[C@H](CO)NC(=O)[C@H](Cc1ccc(O)cc1)NC(=O)[C@H](CC(=O)O)NC(=O)[C@H](CO)NC(=O)[C@@H](NC(=O)[C@H](Cc1ccccc1)NC(=O)[C@@H](NC(=O)CNC(=O)[C@H](CCC(=O)O)NC(=O)C(C)(C)NC(=O)[C@@H](N)Cc1ccc(O)cc1)[C@@H](C)O)[C@@H](C)O)[C@@H](C)CC)[C@@H](C)CC)C(C)C)C(=O)N[C@@H](C)C(=O)NCC(=O)NCC(=O)N1CCC[C@H]1C(=O)N[C@@H](CO)C(=O)N[C@@H](CO)C(=O)NCC(=O)N[C@@H](C)C(=O)N1CCC[C@H]1C(=O)N1CCC[C@H]1C(=O)N1CCC[C@H]1C(=O)N[C@@H](CO)C(N)=O [Compound 15] (H-Y[Aib]EGTFTSDYSI[Aib]LDK([AEEA-AEEA-γGlu-Nonadecanoyl(19-PO3H2)])IAQQAFVQWLIAGGPSSGAPPPS-NH2) | 3830 nM | 347 nM | 807 nM | 110 nM | 185 µg·h/mL | 182 µg·h/mL | 2520 ng/mL | 9.33 h | 60 h | – | – |
| CC[C@H](C)[C@H](NC(=O)[C@H](CC(C)C)NC(=O)[C@H](Cc1c[nH]c2ccccc12)NC(=O)[C@H](CCC(N)=O)NC(=O)[C@@H](NC(=O)[C@H](Cc1ccccc1)NC(=O)[C@H](C)NC(=O)[C@H](CCCCNC(=O)COCCOCCNC(=O)COCCOCCNC(=O)CC[C@H](NC(=O)CCCCCCCCCCCCCCCCCCP(=O)(O)O)C(=O)O)NC(=O)[C@H](CCC(N)=O)NC(=O)[C@H](C)NC(=O)[C@@H](NC(=O)[C@H](CCCCN)NC(=O)[C@H](CC(=O)O)NC(=O)[C@H](CC(C)C)NC(=O)C(C)(C)NC(=O)[C@@H](NC(=O)[C@H](CO)NC(=O)[C@H](Cc1ccc(O)cc1)NC(=O)[C@H](CC(=O)O)NC(=O)[C@H](CO)NC(=O)[C@@H](NC(=O)[C@H](Cc1ccccc1)NC(=O)[C@@H](NC(=O)CNC(=O)[C@H](CCC(=O)O)NC(=O)C(C)(C)NC(=O)[C@@H](N)Cc1ccc(O)cc1)[C@@H](C)O)[C@@H](C)O)[C@@H](C)CC)C(C)C)C(C)C)C(=O)N[C@@H](C)C(=O)NCC(=O)NCC(=O)N1CCC[C@H]1C(=O)N[C@@H](CO)C(=O)N[C@@H](CO)C(=O)NCC(=O)N[C@@H](C)C(=O)N1CCC[C@H]1C(=O)N1CCC[C@H]1C(=O)N1CCC[C@H]1C(=O)N[C@@H](CO)C(N)=O [Compound 17] (H-Y[Aib]EGTFTSDYSI[Aib]LDKVAQK([AEEA-AEEA-γGlu-Nonadecanoyl(19-PO3H2)])AFVQWLIAGGPSSGAPPPS-NH2) | 3740 nM | 316 nM | 4170 nM | 543 nM | 286 µg·h/mL | 254 µg·h/mL | 2300 ng/mL | 6.67 h | 102 h | at least 50% | – |
| CC[C@H](C)[C@H](NC(=O)[C@H](CCCCN)NC(=O)[C@H](CC(=O)O)NC(=O)[C@H](CC(C)C)NC(=O)[C@H](Cc1ccccc1)NC(=O)[C@@H](NC(=O)[C@H](CO)NC(=O)[C@H](Cc1ccc(O)cc1)NC(=O)[C@H](CC(=O)O)NC(=O)[C@H](CO)NC(=O)[C@@H](NC(=O)[C@H](Cc1ccccc1)NC(=O)[C@@H](NC(=O)CNC(=O)[C@H](CCC(=O)O)NC(=O)C(C)(C)NC(=O)[C@@H](N)Cc1ccc(O)cc1)[C@@H](C)O)[C@@H](C)O)[C@@H](C)CC)C(=O)N[C@@H](C)C(=O)N[C@@H](CCC(N)=O)C(=O)N[C@@H](CCCCNC(=O)COCCOCCNC(=O)COCCOCCNC(=O)CC[C@H](NC(=O)CCCCCCCCCCCCCCCCCCP(=O)(O)O)C(=O)O)C(=O)N[C@@H](C)C(=O)N[C@@H](Cc1ccccc1)C(=O)N[C@H](C(=O)N[C@@H](CCC(N)=O)C(=O)N[C@@H](Cc1c[nH]c2ccccc12)C(=O)N[C@@H](CC(C)C)C(=O)N[C@H](C(=O)N[C@@H](C)C(=O)NCC(=O)NCC(=O)N1CCC[C@H]1C(=O)N[C@@H](CO)C(=O)N[C@@H](CO)C(=O)NCC(=O)N[C@@H](C)C(=O)N1CCC[C@H]1C(=O)N1CCC[C@H]1C(=O)N1CCC[C@H]1C(=O)N[C@@H](CO)C(N)=O)[C@@H](C)CC)C(C)C [Compound 18] (H-Y[Aib]EGTFTSDYSIFLDKIAQK([AEEA-AEEA-γGlu-Nonadecanoyl(19-PO3H2)])AFVQWLIAGGPSSGAPPPS-NH2) | 1520 nM | 166 nM | 2850 nM | 659 nM | 149 µg·h/mL | 140 µg·h/mL | 1340 ng/mL | 13.3 h | 81.1 h | – | – |
| CC[C@H](C)[C@H](NC(=O)[C@H](CC(C)C)NC(=O)[C@H](Cc1c[nH]c2ccccc12)NC(=O)[C@H](CCC(N)=O)NC(=O)[C@@H](NC(=O)[C@H](Cc1ccccc1)NC(=O)[C@H](C)NC(=O)[C@H](CCCCNC(=O)COCCOCCNC(=O)COCCOCCNC(=O)CC[C@H](NC(=O)CCCCCCCCCCCCCCCCCCP(=O)(O)O)C(=O)O)NC(=O)[C@H](CCC(N)=O)NC(=O)[C@H](C)NC(=O)[C@@H](NC(=O)[C@H](CCCCN)NC(=O)[C@H](CC(=O)O)NC(=O)[C@H](CC(C)C)NC(=O)[C@H](Cc1ccccc1)NC(=O)[C@@H](NC(=O)[C@H](CO)NC(=O)[C@H](Cc1ccc(O)cc1)NC(=O)[C@H](CC(=O)O)NC(=O)[C@H](CO)NC(=O)[C@@H](NC(=O)[C@H](Cc1ccccc1)NC(=O)[C@@H](NC(=O)CNC(=O)[C@H](CCC(=O)O)NC(=O)C(C)(C)NC(=O)[C@@H](N)Cc1ccc(O)cc1)[C@@H](C)O)[C@@H](C)O)[C@@H](C)CC)C(C)C)C(C)C)C(=O)N[C@@H](C)C(=O)NCC(=O)NCC(=O)N1CCC[C@H]1C(=O)N[C@@H](CO)C(=O)N[C@@H](CO)C(=O)NCC(=O)N[C@@H](C)C(=O)N1CCC[C@H]1C(=O)N1CCC[C@H]1C(=O)N1CCC[C@H]1C(=O)N[C@@H](CO)C(N)=O [Compound 19] (H-Y[Aib]EGTFTSDYSIFLDKVAQK([AEEA-AEEA-γGlu-Nonadecanoyl(19-PO3H2)])AFVQWLIAGGPSSGAPPPS-NH2) | 1340 nM | 153 nM | 4440 nM | 551 nM | 175 µg·h/mL | 159 µg·h/mL | 1240 ng/mL | 20 h | 96.7 h | at least 50% | – |
| CC[C@H](C)[C@H](NC(=O)[C@H](CCCCN)NC(=O)[C@H](CC(=O)O)NC(=O)[C@H](CC(C)C)NC(=O)C(C)(C)NC(=O)[C@@H](NC(=O)[C@H](CO)NC(=O)[C@H](Cc1ccc(O)cc1)NC(=O)[C@H](CC(=O)O)NC(=O)[C@H](CO)NC(=O)[C@@H](NC(=O)[C@H](Cc1ccccc1)NC(=O)[C@@H](NC(=O)CNC(=O)[C@H](CCC(=O)O)NC(=O)C(C)(C)NC(=O)[C@@H](N)Cc1ccc(O)cc1)[C@@H](C)O)[C@@H](C)O)[C@@H](C)CC)C(=O)N[C@@H](C)C(=O)N[C@@H](CCC(N)=O)C(=O)N[C@@H](CCCCNC(=O)COCCOCCNC(=O)COCCOCCNC(=O)CC[C@H](NC(=O)CCCCCCCCCCCCCCCCCCP(=O)(O)O)C(=O)O)C(=O)N[C@@H](C)C(=O)N[C@@H](Cc1ccccc1)C(=O)N[C@H](C(=O)N[C@@H](CCC(N)=O)C(=O)N[C@@H](Cc1c[nH]c2ccccc12)C(=O)N[C@@H](CC(C)C)C(=O)N[C@H](C(=O)N[C@@H](CCCNC(=N)N)C(=O)NCC(=O)NCC(=O)N1CCC[C@H]1C(=O)N[C@@H](CO)C(=O)N[C@@H](CO)C(=O)NCC(=O)N[C@@H](C)C(=O)N1CCC[C@H]1C(=O)N1CCC[C@H]1C(=O)N1CCC[C@H]1C(=O)N[C@@H](CO)C(N)=O)[C@@H](C)CC)C(C)C [Compound 20] (H-Y[Aib]EGTFTSDYSI[Aib]LDKIAQK([AEEA-AEEA-γGlu-Nonadecanoyl(19-PO3H2)])AFVQWLIRGGPSSGAPPPS-NH2) | 2050 nM | 226 nM | 4420 nM | 492 nM | 417 µg·h/mL | 342 µg·h/mL | 2060 ng/mL | 13.3 h | 132 h | at least 50% | more than twice an long as compared to tirzepatide |
